Laboratory results as given in PMC5634495 (Scientific Reports, 2017).

B1: RV-183P (peptide)
peptide: YTIWMPENPRLGTSCDIFTNSRGKRASKG
B2: RV-183L (peptide)
peptide: YTIWMPENLRLGTSCDIFTNSRGKRASKG

How the values were obtained:
[1] = tested on: locomotor activity of mice; settings: mouse, in vivo
α4β2 nAChR = α4β2 nAChR (Homo sapiens, UniProt P17787+P43681); test: cell-based
[2] = tested on: nAChR-mediated pharyngeal pumping in C. elegans (nAChR EAT-2); parameters: species or system Caenorhabditis elegans; settings: in vivo
[3] = target: T1, acetylcholine binding protein derived from Lymnaea stagnalis (L-AChBP) (Lymnaea stagnalis, UniProt P58154 20-229); test: SPR; settings: both partners purified
T1 construct: also called Synthetic Lymnaea stagnalis AChBP
T1 sequence (P58154 20-229): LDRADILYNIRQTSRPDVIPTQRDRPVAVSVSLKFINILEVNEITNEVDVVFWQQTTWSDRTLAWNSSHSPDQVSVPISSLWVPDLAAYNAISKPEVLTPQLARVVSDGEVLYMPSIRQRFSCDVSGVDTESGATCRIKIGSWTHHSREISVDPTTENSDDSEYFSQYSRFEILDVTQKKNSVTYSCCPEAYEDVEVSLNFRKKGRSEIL

Chain of α4β2 nAChR (P43681 29-627 limits assumed): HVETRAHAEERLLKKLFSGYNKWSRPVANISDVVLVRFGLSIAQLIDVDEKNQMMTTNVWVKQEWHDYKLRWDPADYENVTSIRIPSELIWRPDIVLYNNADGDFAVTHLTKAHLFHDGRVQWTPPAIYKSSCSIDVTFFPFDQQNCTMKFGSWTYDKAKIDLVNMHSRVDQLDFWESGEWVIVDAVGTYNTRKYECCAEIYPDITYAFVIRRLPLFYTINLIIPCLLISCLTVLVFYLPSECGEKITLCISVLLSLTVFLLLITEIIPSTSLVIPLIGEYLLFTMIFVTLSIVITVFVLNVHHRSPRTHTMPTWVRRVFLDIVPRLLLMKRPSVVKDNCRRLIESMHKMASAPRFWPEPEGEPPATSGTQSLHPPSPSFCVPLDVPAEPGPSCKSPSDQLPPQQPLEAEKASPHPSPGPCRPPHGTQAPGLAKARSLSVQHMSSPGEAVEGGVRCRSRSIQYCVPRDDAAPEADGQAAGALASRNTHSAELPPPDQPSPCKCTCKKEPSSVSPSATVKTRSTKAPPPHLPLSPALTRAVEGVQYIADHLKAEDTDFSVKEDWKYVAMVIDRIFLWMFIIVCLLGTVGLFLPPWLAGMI
Chain of α4β2 nAChR (P17787 26-502 limits assumed): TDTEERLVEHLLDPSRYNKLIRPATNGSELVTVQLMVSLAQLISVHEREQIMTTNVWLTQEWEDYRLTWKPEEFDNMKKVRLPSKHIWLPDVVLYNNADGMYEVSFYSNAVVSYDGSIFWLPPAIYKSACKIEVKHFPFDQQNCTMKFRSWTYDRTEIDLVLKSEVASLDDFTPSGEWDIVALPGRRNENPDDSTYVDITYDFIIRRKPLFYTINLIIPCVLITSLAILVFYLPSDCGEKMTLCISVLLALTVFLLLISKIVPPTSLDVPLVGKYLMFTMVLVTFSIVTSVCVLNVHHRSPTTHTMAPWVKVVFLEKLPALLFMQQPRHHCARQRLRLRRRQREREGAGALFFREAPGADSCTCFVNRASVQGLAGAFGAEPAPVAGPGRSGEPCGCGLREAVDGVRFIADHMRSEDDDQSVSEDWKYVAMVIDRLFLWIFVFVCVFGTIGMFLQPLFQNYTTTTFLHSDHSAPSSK

Row | Molecule | locomotor activity in novel-environment behaviour test (in words) [1] | IC50 (α4β2 nAChR) | average pharyngeal pumping frequency (in words) [2] | worms in which pharyngeal pumping was absent [2] | binding result [3]
1 | CC[C@H](C)[C@H](NC(=O)[C@H](CC(=O)O)NC(=O)[C@H](CS)NC(=O)[C@H](CO)NC(=O)[C@@H](NC(=O)CNC(=O)[C@H](CC(C)C)NC(=O)[C@H](CCCNC(=N)N)NC(=O)[C@H](C)NC(=O)[C@H](CC(N)=O)NC(=O)[C@H](CCC(=O)O)NC(=O)[C@@H]1CCCN1C(=O)[C@H](CCSC)NC(=O)[C@H](Cc1c[nH]c2ccccc12)NC(=O)[C@@H](NC(=O)[C@@H](NC(=O)[C@@H](N)Cc1ccc(O)cc1)[C@@H](C)O)[C@@H](C)CC)[C@@H](C)O)C(=O)N[C@@H](Cc1ccccc1)C(=O)N[C@H](C(=O)N[C@@H](CC(N)=O)C(=O)N[C@@H](CO)C(=O)N[C@@H](CCCNC(=N)N)C(=O)NCC(=O)N[C@@H](CCCCN)C(=O)N[C@@H](CCCNC(=N)N)C(=O)N[C@@H](C)C(=O)N[C@@H](CO)C(=O)N[C@@H](CCCCN)C(=O)NCC(=O)O)[C@@H](C)O [RV-183A] | increased locomotor activity | 465 to 2620 µM | significantly reduced | six out of seven | –
2 | CC[C@H](C)[C@H](NC(=O)[C@H](CC(=O)O)NC(=O)[C@H](CS)NC(=O)[C@H](CO)NC(=O)[C@@H](NC(=O)CNC(=O)[C@H](CC(C)C)NC(=O)[C@H](CCCNC(=N)N)NC(=O)[C@@H]1CCCN1C(=O)[C@H](CC(N)=O)NC(=O)[C@H](CCC(=O)O)NC(=O)[C@@H]1CCCN1C(=O)[C@H](CCSC)NC(=O)[C@H](Cc1c[nH]c2ccccc12)NC(=O)[C@@H](NC(=O)[C@@H](NC(=O)[C@@H](N)Cc1ccc(O)cc1)[C@@H](C)O)[C@@H](C)CC)[C@@H](C)O)C(=O)N[C@@H](Cc1ccccc1)C(=O)N[C@H](C(=O)N[C@@H](CC(N)=O)C(=O)N[C@@H](CO)C(=O)N[C@@H](CCCNC(=N)N)C(=O)NCC(=O)N[C@@H](CCCCN)C(=O)N[C@@H](CCCNC(=N)N)C(=O)N[C@@H](C)C(=O)N[C@@H](CO)C(=O)N[C@@H](CCCCN)C(=O)NCC(=O)O)[C@@H](C)O [RV-183P] | increased locomotor activity | 185 to 314 µM | – | – | –
3 | GSEPKWYRTKDRASPGSNFTITLMGRCNI [Scrambled, reference compound] | No difference | – | – | – | –
4 | B1 | – | – | – | – | binds
5 | B2 | – | – | – | – | binds
